In patent US11434235B2, “Solid form of dihydropyrimidine compound and preparation method therefor and use thereof” (SICHUAN KELUN-BIOTECH BIOPHARMACEUTICAL CO., LTD., priority 2018, dated 2022):

Tests used:
[1] = Stability of the crystalline form A at room temperature (XRPD); type: physicochemical; conditions: 15 days
Description: (§1) X′Pert3 Powder diffractometer using Cu target radiation was employed, and the detection was performed at room temperature with Absolute scan. The detection range was 3.5° to 40° with a step size of 0.013° and a dwell time of 50 s, scan time: 1. A sample of the crystalline form A of the compound of Formula (I) was allowed to stand at room temperature, and samples were taken on Day 5 and 15 for XRPD detection.

[2] = Stability of the crystalline form A at a high temperature (XRPD); type: physicochemical; conditions: 7 days
Description: as §1, with “stand under vacuum” for “stand”, “60° C.,” for “room temperature,”, “Day 2,” for “Day”, “7, respectively,” for “15”

[3] = Stability of the crystalline form A under grinding (XRPD); type: physicochemical; conditions: ground in a mortar for 5 minutes
Description: as §1, with “ground” for “allowed to stand”, “a constant speed in a mortar,” for “room temperature,”, “after the grinding was performed for 2 and” for “on Day”, “minutes, respectively,” for “and 15”

[4] = DVS study (hygroscopicity) of the crystalline form A; type: physicochemical
Description: The experimental conditions for the dynamic vapor sorption (DVS) were as follows: The detection was performed with DVS Intrinsic (SMS) at 25° C. in a cycle-DMDT mode. The hygroscopicity of a sample of the crystalline form A of the compound of Formula (I) was measured through dynamic vapor sorption (DVS): the hygroscopicity thereof was measured at 25° C., 10% humidity gradient in the range of 0%-90%-0%.

[5] = Pharmacokinetic experiment of the crystalline form A in rats; type: in vivo; conditions: both sexes, Sprague-Dawley (SD), rat, blood, 3 mg/kg
Description: Formulation of the test sample for intravenous administration: the sample of Example 5 (the solvent used in the crystal preparation was isopropanol) was taken and dissolved in 5% DMSO+5% Solutol (HS15)+90% normal saline, to obtain the test sample solution for intravenous administration;
Formulation of the test sample for intragastric administration: the sample of Example 5 (the solvent used in the crystal preparation was isopropanol) was taken and suspended in 97.5% of 0.5% methyl cellulose (MC)+2.5% Solutol (HS15) to obtain a suspension, which was used as the test sample for intragastric administration.
12 SD rats were randomly divided into two groups, groups A and B (6 rats per group, half male and half female). The rats in Group A were each given a single intravenous injection of the sample drug; the rats in Group B were each given the sample drug through intragastric administration, and the dosages are both 3 mg/kg. The blood sampling time points for the intravenous and intragastric administration were before administration and 0.083, 0.25, 0.5, 1.0, 2.0, 4.0, 6.0, 8.0, 10, and 24 h after administration.

[6] = system: SD rats; assay: Single-dose toxicity in SD rats; type: in vivo
Description: The mortar was washed with a 0.5% methyl cellulose (MC) solution with grinding, until there was no visible residue. The mixture was transferred to a calibrated container, and then diluted with a 0.5% methyl cellulose solution to the volume. The solution was stirred uniformly with a magnetic stirrer to obtain a suspension, which was used as the test sample.
4 groups (10 rats per group, half male and half female) were set in the single-dose toxicity test in SD rats, and they were the vehicle control group and the low-, medium-, and high-dose groups of the crystalline form A of the compound of Formula (I), respectively.

[7] = system: Beagle dogs; assay: Single dose toxicity in Beagle dogs; type: in vivo
Description: Formulation of the test sample: a required amount of a sample of the crystalline form A of Example 5 (the solvent used in the crystal preparation was isopropanol) was weighed and added to a mortar, polyethylene glycol-15 hydroxystearate (HS15) in an amount of 2.5% of the total volume was added, and the sample was evenly ground. The mortar was washed with a 0.5% methyl cellulose (MC) solution with grinding, until there was no visible residue. The mixture was transferred to a calibrated container, and then diluted with a 0.5% methyl cellulose solution to the volume. The solution was stirred uniformly with a magnetic stirrer to obtain a suspension, which was used as the test sample.
3 groups (4 dogs per group, half male and half female) were set in the single-dose toxicity test in Beagle dogs, and they were the vehicle control group and the low- and high-dose groups of the crystalline form A of the compound of Formula (I).

[8] = Determination of the solubility of the crystalline form A; type: physicochemical; conditions: 25±2° C., Chinese Pharmacopoeia 2015 terms
Description: Test solvents: methanol, acetonitrile, ethanol, isopropanol, a 0.1 mol/L aqueous solution of hydrochloric acid and a 0.1 mol/L aqueous solution of sodium hydroxide. Test method: the investigation was conducted according to Item 15(2) of the General Notices in Volume IV of the Chinese Pharmacopoeia (2015 edition). An appropriate amount of a sample of the crystalline form A prepared in Example 5 (the solvent used in the crystal preparation was isopropanol) was weighed and added to a certain volume of the solvent at 25±2° C. The mixture was shaken strongly for 30 seconds at an interval of 5 minutes. […] It was considered to be completely soluble if none of the particles of the solute was observed.

[9] = Determination of the log P value (Sirius T3, pH-metric medium log P); type: physicochemical; conditions: titration from low to high pH
Description: The log P value of a sample of the crystalline form A prepared in Example 5 (the solvent used in the crystal preparation was isopropanol) was measured with the Sirius T3 instrument for physical and chemical profile determination. The Sirius log P test method (pH-metric medium log P) was employed, wherein the pH-metric medium log P determination mode was selected, and the titration order was from low to high pH.

[10] = molecular target: hERG (Homo sapiens, UniProt Q12809); conditions: background statement, no test described; cited from earlier work
Chain of hERG (Q12809 whole entry): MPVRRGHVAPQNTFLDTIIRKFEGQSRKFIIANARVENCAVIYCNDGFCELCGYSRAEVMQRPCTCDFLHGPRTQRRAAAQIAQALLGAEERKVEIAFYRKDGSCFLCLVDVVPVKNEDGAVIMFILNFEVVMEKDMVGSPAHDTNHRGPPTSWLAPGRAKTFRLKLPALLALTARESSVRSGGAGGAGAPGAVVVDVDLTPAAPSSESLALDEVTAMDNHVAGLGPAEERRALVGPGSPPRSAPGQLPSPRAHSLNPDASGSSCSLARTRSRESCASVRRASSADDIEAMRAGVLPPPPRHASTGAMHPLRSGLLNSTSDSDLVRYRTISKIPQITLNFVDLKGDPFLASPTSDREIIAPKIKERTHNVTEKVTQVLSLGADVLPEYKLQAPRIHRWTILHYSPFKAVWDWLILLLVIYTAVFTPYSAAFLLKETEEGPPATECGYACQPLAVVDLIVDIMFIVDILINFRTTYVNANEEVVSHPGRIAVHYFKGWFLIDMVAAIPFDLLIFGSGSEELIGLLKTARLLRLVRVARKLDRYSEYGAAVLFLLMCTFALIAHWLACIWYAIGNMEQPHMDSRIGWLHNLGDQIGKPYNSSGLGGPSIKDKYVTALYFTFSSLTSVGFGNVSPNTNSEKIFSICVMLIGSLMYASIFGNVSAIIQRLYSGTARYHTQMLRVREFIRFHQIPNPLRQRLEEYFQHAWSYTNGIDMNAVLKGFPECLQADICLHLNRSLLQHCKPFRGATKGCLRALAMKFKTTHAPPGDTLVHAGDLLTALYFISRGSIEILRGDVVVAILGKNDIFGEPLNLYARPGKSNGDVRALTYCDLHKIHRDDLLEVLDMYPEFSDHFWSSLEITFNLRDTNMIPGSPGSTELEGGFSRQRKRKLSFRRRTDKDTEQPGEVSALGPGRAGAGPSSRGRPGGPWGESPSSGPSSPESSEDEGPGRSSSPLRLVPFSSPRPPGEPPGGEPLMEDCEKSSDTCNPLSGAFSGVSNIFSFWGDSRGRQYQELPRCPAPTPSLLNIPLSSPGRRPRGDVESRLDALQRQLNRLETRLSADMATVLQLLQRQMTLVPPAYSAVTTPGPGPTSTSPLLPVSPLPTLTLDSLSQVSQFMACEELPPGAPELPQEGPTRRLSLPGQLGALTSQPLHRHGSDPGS

[11] = po, SD rats, intragastric, single dose, n = 6
[12] = SD rats, intravenous, single dose, n = 6

With COC(=O)C1=C(CN2CCO[C@H](/C=C/C(=O)O)C2)NC(c2nccs2)=N[C@H]1c1ccc(F)cc1Cl [crystalline form A, (E)-3-((R)-4-(((R)-6-(2-chloro-4-fluorophenyl)-5-(methoxycarbonyl)-2-(thiazol-2-yl)-3,6-dihydropyrimidin-4-yl)methyl)morpholin-2-yl)acrylic acid] the “crystalline form after standing at room temperature (XRPD)” value [1] was “did not change”, the “crystalline form after standing under vacuum at 60° C. (XRPD)” value [2] was “did not change” and the “crystalline form after grinding (XRPD)” value [3] was “did not change”. The “weight increase by hygroscopy” value ([4]; DVS, 25° C., 80% humidity) was 0.28%, the “hygroscopicity class (Chinese Pharmacopoeia 2015)” value ([4]; weight increase within 0.2%-2%) was “slightly hygroscopic” and the bioavailability ([5]; oral, rats, intragastric vs intravenous, calculated based on AUC0-∞, read-out: absolute bioavailability) was 62.4%. The AUC(0-inf) [5, 11] was 6490 ± 2950 ng·h/mL, the AUC(0-t) [5, 11] was 6460 ± 2940 ng·h/mL and the Cmax [5, 11] was 3980 ± 1440 ng/mL. The half-life [5, 11] was 60.6 ± 15.6 min, the Tmax ([5]; po, SD rats, intragastric, single dose, n = 6, median (range in next line)) was 22.8 min and the AUC(0-inf) [5, 12] was 10400 ± 4500 ng·h/mL. It also gave an AUC(0-t) [5, 12] of 10400 ± 4500 ng·h/mL, a Cmax [5, 12] of 9210 ± 2100 ng/mL and a half-life [5, 12] of 52.8 ± 10.8 min. The “abnormalities after 14 days” value ([6]; intragastric single dose, condition, body weight, food intake, hematology, blood biochemistry, gross anatomy) was “no abnormalities were observed”, the “tolerability, single dose” value ([6]; intragastric, low-, medium-, high-dose groups, 14 days observation) was “well tolerated” and the “tolerability, single dose” value ([7]; Beagle dogs, intragastric, low- and high-dose groups, 14 days observation) was “well tolerated”. The “abnormalities after 14 days” value ([7]; dog, in vivo) was “no abnormalities were observed”, the “solubility in 0.1 mol/L aqueous solution of hydrochloric acid” value [8] was “sparingly soluble” and the “solubility in 0.1 mol/L aqueous solution of sodium hydroxide” value [8] was “sparingly soluble”. The solubility in acetonitrile [8] was “soluble”, the solubility in ethanol [8] was “soluble” and the solubility in isopropanol [8] was “slightly soluble”. For the same molecule, the solubility in methanol [8] was “soluble” and the logP [9] was 2.4 to 2.6.
In the case of COC(=O)C1=C(CN2CCO[C@H](/C=C/C(=O)O)C2)NC(c2nccs2)=N[C@H]1c1ccc(F)cc1Cl [compound of Formula (I), (E)-3-((R)-4-(((R)-6-(2-chloro-4-fluorophenyl)-5-(methoxycarbonyl)-2-(thiazol-2-yl)-3,6-dihydropyrimidin-4-yl)methyl)morpholin-2-yl)acrylic acid], the cardiotoxicity [10] is given as “no cardiotoxicity”.
